Assay results: US20020040062A1, “Protein kinase C activators and their use in decreasing expression of cell antigens” (The Trustees of Columbia University, priority 1993, published 2002)
Read-outs that look alike come from different tables or passages of the source. Marks after values point to notes of the source that are not given here.

Tests used:
ICAM-1 = test: FACS analysis of ICAM-1 surface expression in T47D cells; assay type: cell-based, human; settings: 72 hr; for ICAM-1 level of upregulation versus untreated control cells (equivalent to 1.0): presence or absence of 0.1 μg/ml H-7; for ICAM-1 relative increase in expression versus untreated controls (equivalent to 1.0): presence or absence of 1.0 μg/ml H-7
Text: IgG1 murine monoclonal antibody Cu18 and Cu46 recognize two different epitopes of a highly restricted breast carcinoma associated glycoprotein of Mr 225,000 to 250,000 (BCA 225). This TAA is expressed intracytoplasmically and on the membrane of 94% of breast tumors tested and in the T47D human breast carcinoma cell line. BCA 225 is shed into the culture medium by T47D cells and into the sera of breast cancer patients. IgG2a monoclonal antibody L243 (anti HLA Class II-DR) recognizes a monomorphic HLA Class II-DR-α epitope (ATCC M355). Monoclonal antibody CL203.4 [40], which recognizes ICAM-I, was kindly provided by Dr. S. Ferrone, New York Medical College, NY. The c-erbB-2 monoclonal antibody which recognizes the extracellular domain of c-erbB-2 was obtained from Triton Biosciences, Inc., Alamedia, Calif. Monoclonal antibodies Cu18 and Cu46 were used at 0.05 μg/ml and monoclonal antibodies interacting with HLA Class II-DR, ICAM-1 and c-erbB-2 were used at 10 μg/ml. For each experiment, isotype matched control backgrounds (IgG for Cu18, Cu46 and ICAM-1, IgG2a for HLA Class Ii and IgG2b for c-erbB-2) were subtracted from the experimental results. Background from antimouse IgG FITC antibody was also subtracted from experimental results. Applicants never observed backgrounds higher than 2% of total cells for isotypic mouse IgG or higher than 5% for antimouse IgG FITC.
T47D cells treated with the various compounds were analyzed by flow cytometry using appropriate monoclonal antibody concentrations as described previously. Briefly, 1×10^5 cells were incubated with the test antibody for 30 min at 4° C., washed 3× with PBS and incubated with a goat a mouse F (ab)2 FITC conjugated test antibody at a 1:40 dilution for 30 min at 4° C. Cells were then washed 3× with PBS and analyzed on a FACStar (Beckon Dickinson, Mountain View, Calif.) or a Coulter Epics IV FACS (Coulter, Hialeah, Fla.). Results are expressed as mean fluorescence intensity (MFI) units which were determined as described previously. MFI=(mean channel fluorescence in fluorescence positive antibody-binding cells×% of fluorescence positive antibody-binding cells)−(mean channel fluorescence in unstained cells×% of fluorescence positive cells in the unstained population). All studies were performed a minimum of three or four times with duplicate samples in each experiment. Replicate samples within individual experiments varied by ≦10% and variation between experiments were generally ≦20%.

T47D cells [1] = test: T47D cell growth assay (Coulter Counter); assay type: cell-based, human; settings: for effect on 72 hr growth: 0.1 μg/ml, FIG. 1
Procedure: (§1) FIG. 1: Effect of H-7, TPA, MEZ and ADMB on T47D cell growth and DNA synthesis. Cell growth assays are presented in (A). T47D cells were seeded at 1×10^4 cells/35 mm tissue culture plate, the medium was changed with the indicated compounds 24 hr later and cell numbers were determined after an additional 72 hr growth at 37° C. by Coulter Counter. Results are the average of triplicate samples/experimental condition which varied by ≦10%. DNA synthesis assays are presented in (B). T47 D cells were seeded at 1.25×10^4 cells in 0.2 ml of media in 96 microtiter plates. Every 24 hr, cultures received 1 μCi of methyl-^3H-thymidine and 8 hr later cells were harvested and TCA precipitable counts were determined. Results are the average from replicate samples exposed to the indicated compounds for 72 hr. Replicate samples varied by ≦10% and replicate studies varied by ≦15%. Further details can be found in “Detailed Description Of The Invention”.
(§2) T47D cells were seeded at 5×10^3 cells/ml in 35 mm tissue culture plates and 24 hr later the medium was changed with the indicated compounds. Seventy-two hr later the cells were resuspended in trysin/versene (0.125%/0.02%, w/w) and counted using a ZM Coulter Counter (Coulter Electronics). For ^3H-thymidine incorporation studies, T47D cells were seeded at 1.25×10^4 cells in 0.2 ml of media in 96 well microtiter plates. Every 24 hr, plates received 1 μCi of methyl-^3H-thymidine (specific activity […]) (ICN Radiochemicals, Irvine, Calif.), cells were harvested 8 hr after the addition of labeled thymidine and TCA precipitable counts were determined using a Packard scintillation counter. Replicate samples varied by ≦10% and replicate studies varied by ≦15%.

T47D cells [2] = test: 3H-thymidine incorporation (DNA synthesis) in T47D cells; assay type: cell-based, human; settings: 0.1 μg/ml, 72 hr, FIG. 1
Procedure: as §1, §2

[3] = tested on: HLA Class II-DRβ antigen mRNA; test: Northern blotting, steady-state HLA Class II-DRβ mRNA in T47D cells; assay type: cell-based, human; settings: 72 hr, 500 units/ml IFN-α or IFN-β, 50 units/ml IFN-γ, 0.1 μg/ml TPA, MEZ or ADMB, densitometry
Procedure: FIG. 3: Effect of interferon, ADMB, TPA and MEZ, alone and in combination with H-7, on steady-state mRNA levels of HLA Class I antigens, HLA Class II-DRβ antigen, c-erbB-2, ICAM-1 and GAPDH in T47D human breast carcinoma cells. […] Cultures were also grown in the presence of 0.1 μg/ml of H-7 for 72 hr with and without the additional compounds indicated above. Total cytoplasmic RNA was isolated and processed as described in “Detailed Description Of The Invention.” Control: CON; recombinant human leukocyte interferon-A: IFN-αA; recombinant human fibroblast interferon: IFN-β; recombinant human immune interferon: IFN-γ; ADMB; 3-(N-acetylamino)-5-(N-decyl-N-methylamino)-benzyl alcohol; TPA; 12-0-tetradecanoyl-phorbol-13-acetate; MEZ; mezerein; H-7: (1-(5-isoquinolinesulfonyl)-2-methylpiperazine dihydrochloride.
Steady-state levels of HLA Class I, HLA Class II-DRβ, c-erbB-2 and ICAM-I mRNA in control and treated T47D cells were determined by Northern blotting analysis of total cytoplasmic RNA probed with appropriate ^32P-labeled gene probes as previously described. Northern blots were also probed with a ^32P-labeled glyceraldehyde phosphate dehydrogenase (GAPDH) gene probe to verify equal […] under various experimental conditions. Following hybridization, the filters were washed and exposed for autoradiography.

CA19.9 = test: FACS analysis of CA19.9 (MoAb B67.4) in CBS human colon carcinoma cells; assay type: cell-based; settings: 96 hours
Procedure: Cells were plated in 10 cm plates, media was changed 24 hours later with no addition (control) or addition of the indicated compounds and cells were incubated at 37° C. for 96 hours. Cells were resuspended using 10× EDTA and antigen expression was determined as described (Leon, Mesa-Tejada, Gutierrez, Estabrook, Breiner, Schlom & Fisher: Anticancer Res. 9:1639-1648, 1989; Leon, Gutierrez, Jiang, Estabrook, Waxman & Fisher: Cancer Immuno. Immunother. 35:315-324 1992).

[4] = 0.1 μg/ml TPA or MEZ, presence or absence of 0.1 μg/ml H-7, FACStar
[5] = 500 units/ml IFN-β or 50 units/ml IFN-γ
[6] = 500 units/ml IFN-β or 50 units/ml IFN-γ, presence or absence of 1.0 μg/ml H-7, Coulter Epics IV FACS

Molecule | ICAM-1 level of upregulation versus untreated control cells (equivalent to 1.0) (ICAM-1; 0.1 μg/ml TPA or MEZ) | Antigenic Expression (MFI) ICAM-1 (ICAM-1; [4]) | ICAM-1 relative increase in expression versus untreated controls (equivalent to 1.0) (ICAM-1; [5]) | Antigenic Expression (MFI) ICAM-1 (ICAM-1; [6]) | 72 hr growth suppression in combination with H-7 (T47D cells [1]) | effect on 72 hr growth (T47D cells [1]; T47D cells) | effect on DNA synthesis (3H-thymidine incorporation) (T47D cells [2]) | increase in HLA Class II-DR antigen mRNA levels [3] | 72 hr growth suppression in combination with H-7 (T47D cells [1]; T47D cells, in combination with 0.1 μg/ml of H-7, data not shown) | Monoclonal Antibody Binding (MFI) MoAb B67.4 (CA19.9) (CA19.9; MEZ 1100 ng/ml, IFN-γ 100 U/ml) | Monoclonal Antibody Binding (MFI) MoAb B67.4 (CA19.9) (CA19.9; ADMB 0.01 μg/ml) | Monoclonal Antibody Binding (MFI) MoAb B67.4 (CA19.9) (CA19.9; ADMB 0.1 μg/ml) | Monoclonal Antibody Binding (MFI) MoAb B67.4 (CA19.9) (CA19.9; ADMB 1.0 g/ml)
CC1CNCCN1S(=O)(=O)c1cccc2cnccc12.Cl.Cl (stereo not drawn) [H-7, 1-(5-isoquinolinesulfonyl)-2-methylpiperazine dihydrochloride] | (1.0) | 21,538 MFI | 1.0 | 54,080 MFI |  |  |  |  |  |  |  |  | 
CCCCCCCCCCCCCC(=O)O[C@@H]1[C@@H](C)[C@@]2(O)[C@@H](C=C(CO)C[C@]3(O)C(=O)C(C)=C[C@@H]23)[C@H]2C(C)(C)[C@]12OC(C)=O [TPA, 12-0-tetradecanoyl-phorbol-13-acetate] | (3.0) | 63,175 MFI |  |  | No additive or synergistic effect | suppressed to the greatest degree | suppressed to the greatest degree | did not increase |  |  |  |  | 
C=C(C)[C@@]12O[C@@]3(c4ccccc4)O[C@@H]1[C@@H]1[C@@H]4O[C@]4(CO)[C@@H](O)[C@]4(O)C(=O)C(C)=C[C@H]4[C@@]1(O3)[C@H](C)[C@H]2OC(=O)/C=C/C=C/c1ccccc1 [MEZ, mezerein] | (4.1) | 85,745 MFI |  |  |  | only marginally altered | only marginally altered | 1.2 fold | No additive or synergistic effect | 3288* MFI |  |  | 
CCCCCCCCCCN(C)c1cc(CO)cc(NC(C)=O)c1 [ADMB, 3-(N-acetylamino)-5-(N-decyl-N-methylamino)-benzyl alcohol] |  |  |  |  |  | only marginally altered | only marginally altered | did not increase |  |  | 3562* MFI | 3473* MFI | 3962* MFI
IFN-γ: recombinant human immune interferon produced in Escherichia coli (protein, UniProt P01579 24-161, looked up) Interferon gamma: QDPYVKEAENLKKYFNAGHSDVADNGTLFLGILKNWKEESDRKIMQSQIVSFYFKLFKNFKDDQSIQKSVETIKEDMNVKFFNSNKKKRDDFEKLTNYSVTDLNVQRKAIHELIQVMAELSPAAKTGKRKRSQMLFRG |  |  | 3.5 | 191,490 MFI |  |  |  | 1.25 fold |  | 4970* MFI |  |  | 
IFN-β: recombinant human fibroblast interferon with a serine substituted for a cysteine at position 17 (protein, UniProt P01574 22-187, looked up, variant C17S) Interferon beta: MSYNLLGFLQRSSNFQSQKLLWQLNGRLEYCLKDRMNFDIPEEIKQLQQFQKEDAALTIYEMLQNIFAIFRQDSSSTGWNETIVENLLANVYHQINHLKTVLEEKLEKEDFTRGKLMSSLHLKRYYGRILHYLKAKEYSHCAWTIVRVEILRNFYFINRLTGYLRN |  |  | 1.8 | 97,013 MFI |  |  |  | 1.2 fold |  |  |  |  | 
